Assay results taken from patent publication US20250332159A1, “REACTIVE OXYGEN SPECIES MODULATION THROUGH BINDING OF LIGANDS AT THE NQ-BINDING SITE OF THE RESPIRATORY COMPLEX III” (University of Health Sciences & Pharmacy in St. Louis, priority 2024, published 2025).

How the values were obtained:
Format in all cases: cell-based, human
[1] = tested on: MCF7 cells; assay: Total cellular ROS measurement (CellRox Green); conditions: 25 μM, 6-8 hours
Experimental: (§1) The MCF7 breast cancer cell line (ATCC, HTB-22) was purchased from American Type Culture Collection (ATCC, Manassas, VA) and propagated in Eagle's minimum essential medium (EMEM, ATCC) supplemented with 10% FBS (Thermo Scientific), 1% L-glutamine and 1% penicillin/streptomycin (ATCC) in a humidified incubator at 37° C. and 5% CO2. Cells were harvested and seeded into a 96-well black plate at a cell density of 25,000 cells/well and left overnight to adhere. Afterward, cells were treated with 25 μM of the 14 purchased ligands from MolPort (Riga, Latvia), positive control (i.e., doxorubicin), and negative control (i.e., DMSO) and left in the incubator for 6-8 hours. For the Qo and Qi inhibition experiments, 25 μM of myxothiazol or antimycin A (Sigma-Aldrich), respectively were also incubated. Negative controls for the inhibition experiments were composed of DMSO and either 25 μM of myxothiazol or antimycin A. Afterward, cells were washed and stained for 30 minutes at 37° C. and 5% CO2 in the dark using the CellRox Green (Invitrogen, USA) or the MitoSOX Red Assay Kit (Invitrogen, USA). Afterward, cells were washed, and total cellular ROS or mitochondrial superoxide anion levels were measured using the Synergy Biotek UV/Vis/fluorescence microplate reader with excitation/emission wavelengths of 490/525 nm or 396/610 nm, respectively. Nuclei were labeled using NucBlue Live ReadyProbes Reagent (Hoechst 33342). All experiments were performed in at least triplicate and repeated for at least three independent trials.

[2] = tested on: MCF7 cells; assay: Qo and Qi inhibition experiments: mitochondrial superoxide anion with myxothiazol or antimycin A; conditions: for mitochondrial superoxide anion level, ligand with antimycin (ANT): 25 μM ligand + 25 μM ANT (Qi site inhibitor); for mitochondrial superoxide anion level, ligand with myxothiazol (MYX): 25 μM ligand + 25 μM MYX (Qo site inhibitor)
Experimental: as §1

[3] = tested on: MCF7 cells; assay: MTS cytotoxicity assay; conditions: MCF7 cell line, 48 hours
From the text: MCF7 cells were harvested and seeded at a cell density of 5,000 cells/well into a 96-well white plate and left overnight to adhere. […] Then, cells were washed and assayed for cytotoxicity using CellTiter 96® AQueous One Solution Cell Proliferation Assay kit (MTS) (Promega, USA), which is a colorimetric assay containing colorless tetrazolium compound that is bio-reduced by NADPH or NADH produced by dehydrogenase enzymes in metabolically active cells into a colored formazan product that can be measured at wavelength 490 nm using the Synergy Biotek plate reader. Sequential treatment was performed by incubating the overnight attached MCF7 cells with 25 μM of MH-200102 for 24 hours. Then, the cells were washed once and incubated with different concentrations of MH-101015 for another 24 hours. Then, the cells were assayed for cytotoxicity, as mentioned above.

| SMILES | total ROS level compared to negative control (DMSO) [1] | mitochondrial superoxide anion level, ligand with antimycin (ANT) [2] | mitochondrial superoxide anion level, ligand with myxothiazol (MYX) [2] | cytotoxic activity ([3]; 0-100 μM) | IC50 ([3]; Homo sapiens, single treatment, read-out: cytotoxic activity IC50) [µM] |
| --- | --- | --- | --- | --- | --- |
| O=C(O)c1cccc2ncccc12 [MH-01015] | total ROS down-regulating activity | ANT blocks any ROS down-regulating activity | MYX blocks any ROS down-modulating activity |  |  |
| Cc1cc(I)ccc1NC(=O)c1ccc(Br)c(N)c1 [MH-04504] | modest total ROS upregulating activity |  | MYX blocks the ROS up-modulating activity | modest cytotoxic activity |  |
| COCc1cnc2n1CCN(C(=O)c1cscn1)[C@H]2C [MH-131013] | total ROS down-regulating activity | ANT blocks any ROS down-regulating activity | MYX blocks any ROS down-modulating activity |  |  |
| O=C(CSc1ccccc1)NCCCn1ccnc1 [MH-200102] | twofold |  | MYX blocks the ROS up-modulating activity |  | 14.6 |
